Results reported in patent EP0018155A2, “Novel cephalosporin compounds, a process for the preparation thereof, pharmaceutical compositions containing the same and the use thereof as a therapeutic agent against a microorganism” (NOVO NORDISK A/S, priority 1979, dated 1980).
In brackets after ≈: the same amount, converted by molar mass. Read-outs that look alike come from different tables or passages of the source.

Assays:
Assay type in all cases: cell-based
K. pneumoniae K8 = experiment: agar serial dilution test (MIC); conditions: Klebsiella pneumoniae
Description: (§1) The antibiotic activity in vitro of some compounds according to the invention and of some previously known compounds was tested by means of an agar serial dilution test. The following compounds were tested: 7β-[2-(2-Aminothiazol-4-yl)-2-diethylphosphoryloxyiminoacetamido] cephalosporanic acid (designated ES 643, 7β-[2-(2-amino- thiazol-4-yl)-2-dimethylphosphoryloxyiminoacetamido] cephalosporanic acid (designated ES 671), 7β-[2-(2-amino- thiazol-4-yl)-2-dimorpholinophosphoryloxyiminoacetamido] cephalosporanic acid (designated ES 656), 7β-[2-(2-amino- thiazol-4-yl)-2-methylmethylphosphonyloxyiminoacetamido] cephalosporanic acid (designated ES 682), 7β-[2-(2-amino- thiazol-4-yl)-2-hydroxyiminoacetamido] cephalosporanic acid (designated A), cefuroxime (designated B), and cephalotin (designated C). MIC designates minimum inhibitory concentration.

P. mirabilis 2311 = experiment: agar serial dilution test (MIC)
Description: as §1

S. albus 3348 = experiment: agar serial dilution test (MIC)
Description: as §1

S. aureus 13709 = experiment: agar serial dilution test (MIC)
Description: as §1

P. vulgaris 5209 = experiment: agar serial dilution test (MIC)
Description: as §1

S. albus 3578 = experiment: agar serial dilution test (MIC)
Description: as §1

P. morganii 69 = experiment: agar serial dilution test (MIC)
Description: as §1

S. pyogenes 12384 = experiment: agar serial dilution test (MIC)
Description: as §1

E. coli 04 = experiment: agar serial dilution test (MIC)
Description: as §1

E. coli 01 = experiment: agar serial dilution test (MIC)
Description: as §1

S. albus 12228 = experiment: agar serial dilution test (MIC)
Description: as §1

P. vulgaris 17028 = experiment: agar serial dilution test (MIC)
Description: as §1

P. mirabilis 2255 = experiment: agar serial dilution test (MIC)
Description: as §1

P. mirabilis 682 = experiment: agar serial dilution test (MIC)
Description: as §1

S. aureus 3349 = experiment: agar serial dilution test (MIC)
Description: as §1

K. edwardsii K1 = experiment: agar serial dilution test (MIC)
Description: as §1

S. pyogenes 12334 = experiment: agar serial dilution test (MIC)
Description: as §1

P. morganii 18 = experiment: agar serial dilution test (MIC)
Description: as §1

S. aureus 3356 = experiment: agar serial dilution test (MIC)
Description: as §1

P. vulgaris 16868 = experiment: agar serial dilution test (MIC)
Description: as §1

S. aureus 209P = experiment: agar serial dilution test (MIC); conditions: Staphylococcus aureus
Description: as §1

P. vulgaris ATCC 6897 = experiment: MIC value stated in Example 8; conditions: Proteus vulgaris, ATCC6897; against P. vulgaris ATCC 6897
[1] = K8, read-out: MIC value in μg/ml
[2] = Proteus mirabilis, 2311, read-out: MIC value in μg/ml
[3] = Staphylococcus albus, 3348, read-out: MIC value in μg/ml
[4] = Staphylococcus aureus, 13709, read-out: MIC value in μg/ml
[5] = Proteus vulgaris, 5209, read-out: MIC value in μg/ml
[6] = Staphylococcus albus, 3578, read-out: MIC value in μg/ml
[7] = Morganella morganii, 69, read-out: MIC value in μg/ml
[8] = Streptococcus pyogenes, 12384, read-out: MIC value in μg/ml
[9] = Escherichia coli, 04, read-out: MIC value in μg/ml
[10] = Escherichia coli, 01, read-out: MIC value in μg/ml
[11] = Staphylococcus albus, 12228, read-out: MIC value in μg/ml
[12] = Proteus vulgaris, 17028, read-out: MIC value in μg/ml
[13] = Proteus mirabilis, 2255, read-out: MIC value in μg/ml
[14] = Proteus mirabilis, 682, read-out: MIC value in μg/ml
[15] = Staphylococcus aureus, 3349, read-out: MIC value in μg/ml
[16] = Streptococcus pyogenes, 12334, read-out: MIC value in μg/ml
[17] = Morganella morganii, 18, read-out: MIC value in μg/ml
[18] = Staphylococcus aureus, 3356, read-out: MIC value in μg/ml
[19] = Proteus vulgaris, 16868, read-out: MIC value in μg/ml
[20] = 209P, read-out: MIC value in μg/ml

Compound `CCOP(=O)(OCC)ON=C(C(=O)NC1C(=O)N2C(C(=O)O)=C(COC(C)=O)CSC12)c1csc(N)n1` (stereo not drawn) [ES 643, 7β-[2-(2-Aminothiazol-4-yl)-2-diethylphosphoryloxyiminoacetamido] cephalosporanic acid] has an MIC (K. pneumoniae K8; [1]) of 1.6 µg/mL (≈ 2.77 µM), an MIC (P. mirabilis 2311; [2]) of less than 0.1 µg/mL and an MIC (S. albus 3348; [3]) of 0.8 µg/mL (≈ 1.39 µM). For the same compound, the MIC (S. aureus 13709; [4]) was 3.1 µg/mL (≈ 5.37 µM), the MIC (P. vulgaris 5209; [5]) was 0.8 µg/mL (≈ 1.39 µM) and the MIC (S. albus 3578; [6]) was 1.6 µg/mL (≈ 2.77 µM). For the same compound, the MIC (P. morganii 69; [7]) was 0.2 µg/mL (≈ 0.346 µM), the MIC (S. pyogenes 12384; [8]) was less than 0.1 µg/mL and the MIC (E. coli 04; [9]) was 0.8 µg/mL (≈ 1.39 µM). For the same compound, the MIC (E. coli 01; [10]) was 0.2 µg/mL (≈ 0.346 µM), the MIC (S. albus 12228; [11]) was 1.6 µg/mL (≈ 2.77 µM) and the MIC (P. vulgaris 17028; [12]) was 0.2 µg/mL (≈ 0.346 µM). The MIC (P. mirabilis 2255; [13]) was less than 0.1 µg/mL, the MIC (P. mirabilis 682; [14]) was less than 0.1 µg/mL and the MIC (S. aureus 3349; [15]) was 1.6 µg/mL (≈ 2.77 µM). For the same compound, the MIC (K. edwardsii K1; read-out: MIC value in μg/ml) was 0.8 µg/mL (≈ 1.39 µM), the MIC (S. pyogenes 12334; [16]) was less than 0.1 µg/mL and the MIC (P. morganii 18; [17]) was 1.6 µg/mL (≈ 2.77 µM). For the same compound, the MIC (S. aureus 3356; [18]) was 1.6 µg/mL (≈ 2.77 µM), the MIC (P. vulgaris 16868; [19]) was 0.2 µg/mL (≈ 0.346 µM) and the MIC (S. aureus 209P; [20]) was 3.1 µg/mL (≈ 5.37 µM).
Compound `CC(=O)OCC1=C(C(=O)O)N2C(=O)C(NC(=O)C(=NOP(=O)(N3CCOCC3)N3CCOCC3)c3csc(N)n3)C2SC1` (stereo not drawn) [ES 656, 7β-[2-(2-amino-thiazol-4-yl)-2-dimorpholinophosphoryloxyiminoacetamido] cephalosporanic acid] has an MIC (K. pneumoniae K8; K. pneumoniae K8, read-out: MIC value) of 0.4 µg/mL (≈ 0.606 µM), an MIC (P. mirabilis 2311; Proteus mirabilis, P. mirabilis 2311, read-out: MIC value) of 0.2 µg/mL (≈ 0.303 µM) and an MIC (S. albus 3348; Staphylococcus albus, S. albus 3348, read-out: MIC value) of 0.2 µg/mL (≈ 0.303 µM). The MIC (S. aureus 13709; Staphylococcus aureus, S. aureus 13709, read-out: MIC value) was 0.2 µg/mL (≈ 0.303 µM), the MIC (P. vulgaris 5209; Proteus vulgaris, P. vulgaris 5209, read-out: MIC value) was 50 µg/mL (≈ 75.8 µM) and the MIC (S. albus 3578; Staphylococcus albus, S. albus 3578, read-out: MIC value) was 0.2 µg/mL (≈ 0.303 µM). It also gave an MIC (P. morganii 69; Morganella morganii, P. morganii 69, read-out: MIC value) of 3.1 µg/mL (≈ 4.7 µM), an MIC (S. pyogenes 12384; Streptococcus pyogenes, S. pyogenes 12384, read-out: MIC value) of less than 0.1 µg/mL and an MIC (E. coli 04; Escherichia coli, E. coli 04, read-out: MIC value) of 0.2 µg/mL (≈ 0.303 µM). The MIC (E. coli 01; Escherichia coli, E. coli 01, read-out: MIC value) was less than 0.1 µg/mL, the MIC (S. albus 12228; Staphylococcus albus, S. albus 12228, read-out: MIC value) was 0.2 µg/mL (≈ 0.303 µM) and the MIC (P. vulgaris 17028; Proteus vulgaris, P. vulgaris 17028, read-out: MIC value) was 25 µg/mL (≈ 37.9 µM). It also gave an MIC (P. mirabilis 2255; Proteus mirabilis, P. mirabilis 2255, read-out: MIC value) of 0.2 µg/mL (≈ 0.303 µM), an MIC (P. mirabilis 682; Proteus mirabilis, P. mirabilis 682, read-out: MIC value) of less than 0.1 µg/mL and an MIC (S. aureus 3349; Staphylococcus aureus, S. aureus 3349*, penicillin-resistant strain, read-out: MIC value) of 0.4 µg/mL (≈ 0.606 µM). The MIC (K. edwardsii K1; K. edwardsii K1, read-out: MIC value) was 1.6 µg/mL (≈ 2.43 µM), the MIC (S. pyogenes 12334; Streptococcus pyogenes, S. pyogenes 12334, read-out: MIC value) was less than 0.1 µg/mL and the MIC (P. morganii 18; Morganella morganii, P. morganii 18, read-out: MIC value) was 1.6 µg/mL (≈ 2.43 µM). The MIC (S. aureus 3356; Staphylococcus aureus, S. aureus 3356*, penicillin-resistant strain, read-out: MIC value) was 0.2 µg/mL (≈ 0.303 µM), the MIC (P. vulgaris 16868; Proteus vulgaris, P. vulgaris 16868, read-out: MIC value) was 12.5 µg/mL (≈ 18.9 µM) and the MIC (S. aureus 209P; S. aureus 209P, read-out: MIC value) was 0.2 µg/mL (≈ 0.303 µM).
`COP(=O)(OC)ON=C(C(=O)NC1C(=O)N2C(C(=O)O)=C(COC(C)=O)CSC12)c1csc(N)n1` (stereo not drawn) [ES 671, 7β-[2-(2-amino-thiazol-4-yl)-2-dimethylphosphoryloxyiminoacetamido] cephalosporanic acid] showed an MIC (K. pneumoniae K8; [1]) of 0.4 µg/mL (≈ 0.728 µM), an MIC (P. mirabilis 2311; [2]) of less than 0.1 µg/mL and an MIC (S. albus 3348; [3]) of 0.8 µg/mL (≈ 1.46 µM). It also gave an MIC (S. aureus 13709; [4]) of 1.6 µg/mL (≈ 2.91 µM), an MIC (P. vulgaris 5209; [5]) of 0.2 µg/mL (≈ 0.364 µM) and an MIC (S. albus 3578; [6]) of 0.8 µg/mL (≈ 1.46 µM). It also gave an MIC (P. morganii 69; [7]) of 0.4 µg/mL (≈ 0.728 µM), an MIC (S. pyogenes 12384; [8]) of less than 0.1 µg/mL and an MIC (E. coli 04; [9]) of 0.4 µg/mL (≈ 0.728 µM). It also gave an MIC (E. coli 01; [10]) of 0.2 µg/mL (≈ 0.364 µM), an MIC (S. albus 12228; [11]) of 0.4 µg/mL (≈ 0.728 µM) and an MIC (P. vulgaris 17028; [12]) of less than 0.1 µg/mL. The MIC (P. mirabilis 2255; [13]) was 0.1 µg/mL (≈ 0.182 µM), the MIC (P. mirabilis 682; [14]) was less than 0.1 µg/mL and the MIC (S. aureus 3349; [15]) was 1.6 µg/mL (≈ 2.91 µM). For the same compound, the MIC (K. edwardsii K1; read-out: MIC value in μg/ml) was 0.2 µg/mL (≈ 0.364 µM), the MIC (S. pyogenes 12334; [16]) was less than 0.1 µg/mL and the MIC (P. morganii 18; [17]) was less than 0.1 µg/mL. The MIC (S. aureus 3356; [18]) was 1.6 µg/mL (≈ 2.91 µM), the MIC (P. vulgaris 16868; [19]) was less than 0.1 µg/mL and the MIC (S. aureus 209P; [20]) was 3.1 µg/mL (≈ 5.64 µM).
In the case of `COP(=O)(O)ON=C(C(=O)NC1C(=O)N2C(C(=O)O)=C(COC(C)=O)CSC12)c1csc(N)n1` (stereo not shown) [Example 8b], the MIC (P. vulgaris ATCC 6897) is reported as 0.2 µg/mL (≈ 0.374 µM).
